Results on 52 compounds are retold here after PubChem BioAssay AID1996.

The structures appear in SMILES notation. Converted amounts (≈) assume the structure as drawn. Where only a bound is given, the exact number is not on record here.

For the series the following is noted: buffer; pH 7.4; 200.0 µM.
For `Cc1ccccc1Nc1ncnc2c1cnn2C`, the solubility (kinetic) is over 35.9 µg/mL.

For the compound `O=C(NCCNC(=O)c1ccccc1O)c1ccccc1O`, the kinetic solubility turned out to be 32.3 µg/mL (≈ 108 µM).

As to `CCOC(=O)c1cn(CC#N)c2cc(F)c(F)cc2c1=O`, the solubility (kinetic) is over 43.8 µg/mL. The result for `CCOC(=O)C(Cc1ccccc1)C(=O)NCc1ccccc1` (configuration not stated) reads over 46.7 µg/mL. Then `CC(=O)c1ccc(NC(=S)NCc2cccnc2)cc1`, with over 42.8 µg/mL. Then `Cc1cc(C(=O)COC(=O)Cc2ccc(Br)cc2)c(C)n1C`, with 15.2 µg/mL (≈ 41.7 µM); and `CC1(C)CN=C(Nc2ccc(F)c(Cl)c2)S1`, with 0.8 µg/mL (≈ 3.09 µM); and `O=c1c(Cc2ccc(F)cc2)c(O)ccn1CCc1ccccn1`, with over 48.7 µg/mL. `C/C(CCC1CC(C)OC1=O)=N\NC(N)=S` (configuration not stated) returned a kinetic solubility of over 36.5 µg/mL.

The compound `O=C(NC1CCN(C(=O)c2cccc([N+](=O)[O-])c2)CC1)c1ccccc1` came in with a solubility (kinetic) of over 53 µg/mL. Then `CN1CCN(/C=C(\C#N)S(=O)(=O)c2ccc(Cl)cc2)CC1`, with 44.1 µg/mL (≈ 135 µM); and `Nc1oc2ccccc2c(=O)c1-c1ccc2c(c1)OCO2`, with over 42.2 µg/mL.

`O=C1NC(=O)/C(=C\c2ccc(O)cc2O)S1` displayed a solubility (kinetic) of over 35.6 µg/mL. The result for `Cc1ccc(CNC(=O)N2CCN(c3ccc(C)cc3)CC2)cc1` reads 4.1 µg/mL (≈ 12.7 µM); that for `COc1cc(C(=O)Nc2ccncc2)c([N+](=O)[O-])cc1OC`, over 45.5 µg/mL.

The compound `COc1cccc(OCC(=O)Nc2ccccc2-c2ccccc2)c1` came in with a kinetic solubility of 1.5 µg/mL (≈ 4.5 µM). Then `Cc1cc(NC(=O)CSc2nc3c(C)c(C)ccc3cc2C)no1`, with under 0.2 µg/mL; and `Cc1cc(N)ccc1NC(=O)CN1CCCC1`, with 23.1 µg/mL (≈ 99 µM); and `CCOc1ncnc2c1sc1nc(C)cc(C)c12`, with under 0.2 µg/mL. The result for `Cn1c(Cl)c(/C=N/OC(=O)C2CC2)c2ccccc21` reads 2.7 µg/mL (≈ 9.76 µM). With `CCCn1c(C(O)c2cccc(OC)c2)nc2ccccc21` (configuration not stated), the solubility (kinetic) came out at 39.4 µg/mL (≈ 133 µM). Then `COc1ccccc1NC(=O)Nc1ccncc1`, with 16.5 µg/mL (≈ 67.8 µM); and `O=C(CSc1nc(-c2ccccc2)cs1)NCCCN1CCCC1=O`, with over 56.3 µg/mL; and `CC(=O)Nc1ccc(C(=O)COC(=O)CCN2C(=O)C3CC=CCC3C2=O)cc1` (configuration not stated), with over 59.8 µg/mL. `CCOc1ccccc1NC(=O)Nc1ccncc1` came in with a kinetic solubility of 36.3 µg/mL (≈ 141 µM). `CCOC(=O)C1CCCN(C/C=C/c2ccccc2)C1` (configuration not stated) gave a kinetic solubility of 20.5 µg/mL (≈ 75 µM). The result for `Cc1cccc(N2C(=O)C3C4C=CC(CC4)C3C2=O)c1` (configuration not stated) reads 33.5 µg/mL (≈ 125 µM); that for `CN1CCN2c3ccccc3CC3(C(=O)N(C)C(=O)N(C)C3=O)C2C1` (configuration not stated), over 51.4 µg/mL; that for `CC(CCc1ccc(O)cc1)NCCC(c1ccccc1)c1ccccc1` (configuration not stated), 53.4 µg/mL (≈ 149 µM).

On to `CCCN(Cc1cc2cc(OC)ccc2[nH]c1=O)C(=O)c1ccco1`, for which the kinetic solubility stood at 45.2 µg/mL (≈ 133 µM). Then `CN(C)S(=O)(=O)c1cccc(C(=O)OCC(=O)N2CCCC2=O)c1`, with over 53.2 µg/mL; and `O=c1cc(CCl)nc2scc(-c3ccccc3)n12`, with over 41.5 µg/mL; and `COc1cccc(N=Cc2nc(-c3ccccc3)oc2OC(C)=O)c1`, with 10.1 µg/mL (≈ 30 µM). The result for `Cc1cc(C)c(NC(=O)COC(=O)C23CC4CC(CC(O)(C4)C2)C3)c(Cl)c1` reads over 58.8 µg/mL. The result for `CCCc1cc(NCc2ccccn2)n2c(nc3ccccc32)c1C#N` reads under 0.1 µg/mL; that for `O=C(CCN=C1NS(=O)(=O)c2ccccc21)NCc1ccccc1F`, over 54.2 µg/mL; that for `COC(=O)c1cc2c(=O)c3ccccc3oc2nc1C`, 5.4 µg/mL (≈ 20.1 µM). In turn, `O=C(Nc1nccs1)c1cc(Cl)nc2ccccc12` registered a kinetic solubility of 5.2 µg/mL (≈ 17.9 µM). Then `CCn1c(SCC(=O)NCC2CCCO2)nc2ccccc21` (configuration not stated), with over 47.9 µg/mL; and `c1csc(-c2noc(CN3CCN4CCCC4C3)n2)c1` (configuration not stated), with over 43.6 µg/mL. Then `Brc1c(NC2=NCCN2)ccc2nccnc12`, with 11.2 µg/mL (≈ 38.3 µM); and `Cl.OC(CN1CCNCC1)Cn1c2ccccc2c2ccccc21` (configuration not stated), with 54.4 µg/mL. The result for `Cc1c(C(=O)NC2CCOC2)oc2c(F)cccc12` (configuration not stated) reads over 39.5 µg/mL; that for `COc1cccc(NC(=O)N(CCN(C)C)C(C)c2cccnc2)c1` (configuration not stated), over 51.4 µg/mL; that for `CC1(C)Cc2cccc(OCC(=O)NCc3cccs3)c2O1`, over 47.6 µg/mL. Compound `CC(C(=O)Nc1ccc2c(c1)OCO2)N(C)CC(=O)Nc1ccccc1Cl` (configuration not stated) returned a solubility (kinetic) of over 58.5 µg/mL. The result for `O=C(N/C(=C/c1cccs1)C(=O)N1CCCC1)c1ccccc1` reads 46.5 µg/mL (≈ 142 µM).

`COc1ccc(C(=O)NCCN2CCOCC2)c(OC)c1` displayed a kinetic solubility of over 44.2 µg/mL. Then `Nc1ccccc1NC(=O)NC(=O)c1ccccc1`, with 6.1 µg/mL (≈ 23.9 µM); and `CN(C(=O)c1ccc(-c2ccccc2)cc1)C1CCCCC1`, with 1.5 µg/mL (≈ 5.11 µM); and `N=c1oc2ccc(Cl)cc2cc1C(=O)Nc1ccc(F)cc1`, with 1 µg/mL (≈ 3.16 µM). The result for `O=C(NCCC(=O)N1CCN(c2ccccn2)CC1)c1ccc([N+](=O)[O-])cc1` reads over 57.5 µg/mL.

As a reminder, the kinetic solubility is the concentration staying in solution when a stock, usually in DMSO, is diluted into the medium.
